# In patent US20170066741A1, “2-Amino-3,5,5-Trifluoro-3,4,5,6-Tetrahydropyridines as BACE1 Inhibitors for Treatment of Alzheimer's Disease” (H. Lundbeck A/S, priority 2014, published 2017):
# Target: T1, BACE1 enzyme (Homo sapiens, UniProt P56817)
# T1 construct: purchased Life Technologies P2985
# Test: BACE1 efficacy assay (FRET-based, commercial BACE1 kit)
# Format: biochemical
# Conditions: test compound 10 μM
# Protocol: The efficacy assay was performed as a FRET-based assay using a commercially available BACE1 kit (Life Technologies, P2985). 2 μl test compound at 10 μM (final concentration) and 15 μl BACE1 enzyme from the kit (final concentration 3 nM) were preincubated for 15 minutes at room temperature before addition of […] of substrate from the kit (250 nM final concentration) and incubated for additional 90 minutes at room temperature. The assay plate was subsequently read in a Pherastar (Ex540/Em590). […] The efficacy of the test compounds was evaluated at 10 μM (final concentration) and defined as the percent inhibition of the enzyme activity using the equation % inhibition=100%−normalized enzyme activity in percent.
# T1 sequence (P56817 46-501): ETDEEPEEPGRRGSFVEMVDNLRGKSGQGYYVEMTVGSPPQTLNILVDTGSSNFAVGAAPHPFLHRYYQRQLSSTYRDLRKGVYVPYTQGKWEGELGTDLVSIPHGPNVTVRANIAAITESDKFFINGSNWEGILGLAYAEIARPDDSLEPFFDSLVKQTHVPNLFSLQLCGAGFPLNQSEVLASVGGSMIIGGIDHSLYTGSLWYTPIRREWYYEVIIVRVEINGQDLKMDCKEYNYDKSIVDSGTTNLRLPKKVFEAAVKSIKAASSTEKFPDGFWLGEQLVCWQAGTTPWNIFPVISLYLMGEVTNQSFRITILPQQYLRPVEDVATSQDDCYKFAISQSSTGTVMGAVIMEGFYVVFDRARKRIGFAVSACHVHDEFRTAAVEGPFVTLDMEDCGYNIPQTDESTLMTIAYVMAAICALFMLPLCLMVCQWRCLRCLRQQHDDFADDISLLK
row,inhibition at 10 µM,SMILES
1,101%,"COc1ccc(C(=O)Nc2ccc(F)c([C@@]3(C)N=C(N)[C@@](C)(F)CC3(F)F)c2)nc1 [Compound 17, N-(3-((2R,5S)-6-amino-3,3,5-trifluoro-2,5-dimethyl-2,3,4,5-tetrahydropyridin-2-yl)-4-fluorophenyl)-5-methoxypicolinamide]"
2,102%,"Cc1cc(C#N)cnc1C(=O)Nc1ccc(F)c([C@@]2(C)N=C(N)[C@@](C)(F)CC2(F)F)c1 [Compound 18, N-(3-((2R,5S)-6-amino-3,3,5-trifluoro-2,5-dimethyl-2,3,4,5-tetrahydropyridin-2-yl)-4-fluorophenyl)-5-cyano-3-methylpicolinamide]"
3,102%,"C[C@@]1(F)CC(F)(F)[C@@](C)(c2cc(NC(=O)c3ccn(C(F)F)n3)ccc2F)N=C1N [Compound 23, N-(3-((2R,5R)-6-amino-3,3,5-trifluoro-2,5-dimethyl-2,3,4,5-tetrahydropyridin-2-yl)-4-fluorophenyl)-1-(difluoromethyl)-1H-pyrazole-3-carboxamide]"
